Read-outs that look alike come from different tables or passages of the source.
Tests used:
[1] = target: T1, NLuc-ENL YEATS fusion protein (Homo sapiens, UniProt Q03111); test: NanoBRET apparent tracer affinity; assay type: cell-based; conditions: HEK293T cells
T1 construct: DNA encoding the ENL YEATS domain (aa 1–148) was cloned into an NLuc containing plasmid; expressed in transfected cells
T1 sequence (Q03111 1-148): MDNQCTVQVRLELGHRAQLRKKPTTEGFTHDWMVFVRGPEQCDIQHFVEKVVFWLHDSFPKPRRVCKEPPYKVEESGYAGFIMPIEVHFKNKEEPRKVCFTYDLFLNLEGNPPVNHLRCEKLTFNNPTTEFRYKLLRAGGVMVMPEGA
Description: (§1) Approximately 1.8 × 10^4 HEK293T cells (100 μL) stably expressing NLuc-ENL YEATS were seeded into a white nonbinding 96-well assay plate and incubated overnight at 37 °C in a humidified 5% CO2 atmosphere. After removal of the medium, the cells were added with a tracer (with or without excess of unlabeled compound) in the Opti-MEM with 0.1% DMSO. After incubation at 37 °C for 2 h the assay plate was equilibrated at room temperature for 15 min. For BRET detection, the NanoGlo Substrate and the extracellular NanoLuc inhibitor (Promega, N2160) were diluted with Opti-MEM as described in protocol to afford detection solution. 50 μL of the detection solution was added per well and the plate was incubated for 3 min at room temperature. The donor emission was measured at 450 nm and the acceptor emission at 610 nm using a BioTek SYNERGY neo2 multimode reader. The BRET ratio was calculated according to the following formula: BRET ratio = [(acceptorsample/donorsample) – (acceptorno-tracer control/donorno-tracer control)] × 1000.

ENL YEATS = target: T2, ENL YEATS (Homo sapiens, UniProt Q03111); test: AlphaScreen assay with biotinylated ENL-S1 peptide; conditions: inhibition of ENL YEATS binding to ENL-S1 peptide; mean ± SD, n = 3; read-out: Alpha IC50 (nM) for ENL YEATS
T2 construct: final concentrations of 100 nM His-ENL YEATS, 100 nM Biotin-ENL-S1
T2 sequence (Q03111 1-138 limits assumed): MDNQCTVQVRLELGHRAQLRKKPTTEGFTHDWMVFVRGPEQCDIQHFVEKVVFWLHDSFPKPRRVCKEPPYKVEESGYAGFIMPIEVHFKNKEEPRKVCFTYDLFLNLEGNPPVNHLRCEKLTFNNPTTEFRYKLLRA
Description: The AlphaScreen assay was carried out in 384-well plates. Manual assay setup was performed in a 40 μL reaction buffer (50 mM HEPES pH 7.4, 100 mM NaCl, 0.1% bovine serum albumin, and 0.05% CHAPS) with final concentrations of 100 nM His-ENL YEATS, 100 nM Biotin-ENL-S1, and 20 μg/mL of AlphaScreen donor and acceptor beads. The protein, peptide, and compounds were mixed and incubated for 1 h at room temperature and then incubated for 30 min in dark after adding the α beads. AlphaScreen-signals were detected by a multimode microplate reader (BioTeK Synergy Neo2) equipped with an Alpha-laser (PerkinElmer).

ENL YEATS domain [2] = target: T3, ENL YEATS domain (Homo sapiens, UniProt Q03111); test: Biolayer interferometry (BLI); assay type: binding; conditions: biotinylated ENL YEATS on SSA biosensors, 1:1 model
T3 construct: Biotinylated-ENL YEATS was immobilized onto SSA biosensors; biotin (biotinylated)
T3 sequence (Q03111 1-138 limits assumed): T2 sequence (Q03111 1-138 limits assumed)
Description: Superstreptavidin biosensors were first incubated in an assay buffer (20 mM Tris, pH 7.8, 300 mM NaCl, 0.05% Tween 20, 0.1% DMSO) for 15 min. Sensors were coated with 40–60 μg/mL of biotinylated ENL for 15 min at room temperature. Inhibitors were serially diluted across a 96-well plate in a volume of 200 μL. Association of samples to either ENL- or uncoated reference sensors was measured over 300 s and dissociation over 300 s with baseline measurements (buffer only) for 300 s. All assays were run with continuous 1000 rpm shaking. Data were analyzed using the OctetRED data analysis software with reference subtraction in which reference uncoated sensors and reference samples were subtracted. Then, global kinetic fit was performed for all sonogram curves with a 1:1 model to get KD values.

NLuc-ENL YEATS = target: T4, NLuc-ENL YEATS (Homo sapiens, UniProt Q03111); test: ENL-NanoBRET inhibitor competitive assay; assay type: cell-based; conditions: HEK293T cells stably expressing NLuc-ENL YEATS, 1 μM Tracer 2, 2 h; mean ± SD, n = 3
T4 construct: DNA encoding the ENL YEATS domain (aa 1–148) was cloned into an NLuc containing plasmid; expressed in transfected cells
T4 sequence (Q03111 1-148): T1 sequence (Q03111 1-148)
Description: as §1
Sample procedures were followed for cell seeding as described in the previously described tracer affinity assay. After removal of the medium, the cells were added with a tracer in the medium (1.1 μM, 100 μL) and varied concentrations of a test compound in 0.1% DMSO (10 μL). The plate was thoroughly mixed on an orbital shaker for 15 s at 900 rpm. Then the cells were incubated at 37 °C, 5% CO2 for 2 h for BRET ratio detection as described previously.

[3] = Log D at pH 7.4 (chromatographic procedure); assay type: physicochemical; conditions: n-octanol / aqueous buffer pH 7.4, pH 7.4
Description: Log D at 7.4, which is a partition coefficient between n-octanol and aqueous buffer pH 7.4 of the compounds was measured on the chromatographic procedure whose condition was developed based on a published method.[35]

[4] = In vitro stability assay in human plasma; assay type: in vitro ADME; conditions: 37 °C
Description: The in vitro stability analysis of a test compound was initiated by the addition of the test compound to 90 μL of prewarmed (37 °C) human plasma with a final concentration of 5 μM. All assays were performed in a plate shaker at 37 °C and conducted in triplicate. At 0, 5, 15, 30, 60, and 120 min, 400 μL acetonitrile (with the internal standard diclofenac as 10 μg/mL) was added to deproteinize the plasma and terminate the reaction, the remaining compound was then analyzed by HPLC-MS/MS.

[5] = In vitro metabolic stability assay in HLM; assay type: in vitro ADME, human
Description: At 0, 5, 15, 30, 45, and 60 min, 200 μL acetonitrile (with the internal standard diclofenac as 10 μg/mL) was added to terminate the reaction, the remaining compound was analyzed by HPLC-MS/MS.

[6] = Cell toxicity assay (CCK-8), MOLM-13; assay type: cell-based; conditions: human, MOLM-13 cells, 8 day treatment, n = 3; read-out: CC50 MOLM-13 (Cellular IC50, 8-days incubation)
Description: (§2) Approximately 1 × 10^4 JURKAT, MOLM-13, MV4-11 and HEK293T cells in RPMI 1640 (no phenol red) (100 μL) were added to a 96-well plate and treated with DMSO or a compound at indicated concentrations for 72 h or 8 days. Cell viability was measured using the CCK-8 kit (Abcam, ab228554) according to the manufacturer’s instructions.

MOLM-13 cells = test: Cell toxicity assay (CCK-8), MOLM-13; assay type: cell-based; conditions: 8 day treatment, n = 3; read-out: CC50 MOLM-13 (Cellular IC50, 8-days incubation)
Description: as §2

[7] = Cell toxicity assay (CCK-8), MV4-11; assay type: cell-based; conditions: human, MV4-11 cells, 8 day treatment, n = 3; read-out: CC50 MV4-11 (Cellular IC50, 8-days incubation)
Description: as §2

MV4-11 cells = test: Cell toxicity assay (CCK-8), MV4-11; assay type: cell-based; conditions: 8 day treatment, n = 3; read-out: CC50 MV4-11 (Cellular IC50, 8-days incubation)
Description: as §2

[8] = Cell toxicity assay (CCK-8), Jurkat; assay type: cell-based; conditions: human, Jurkat cells; 8 day treatment, n = 3; read-out: CC50 Jurkat (Cellular IC50, 8-days incubation)
Description: as §2

[9] = Cell toxicity assay (CCK-8), HEK293T; assay type: cell-based; conditions: human, HEK293T cells; 72 h (3-days) treatment, n = 3; read-out: CC50 HEK293T (Cellular IC50, 3-days incubation)
Description: as §2

ENL YEATS domain [10] = target: T3, ENL YEATS domain; conditions: cited from earlier work

## O=C(CCC1=[N+]2C(=Cc3ccc(-c4ccc[nH]4)n3[B-]2(F)F)C=C1)NCCCCSc1ccc(CNC(=O)c2ccc3nncn3c2)cc1 [Tracer 1, N-(4-((4-(3-(5,5-Difluoro-7-(1H-pyrrol-2-yl)-5H-4l4,5l4-dipyrrolo[1,2-c:2′,1′-f][1,3,2]diazaborinin-3-yl)propanamido)butyl)thio)benzyl)-[1,2,4]triazolo[4,3-a]pyridine-6-carboxamide]
[1]; Figure S5a
  affinity profile of tracer for NLuc-ENL YEATS fusion protein: limited affinity profile

## C[C@H]1CCCN1Cc1cc2cnc(NC(=O)c3ccc4nncn4c3)cc2[nH]1 [YR-D-120, (S)-N-(2-((2-Methylpyrrolidin-1-yl)methyl)-1H-pyrrolo[3,2-c]pyridin-6-yl)-[1,2,4]triazolo [4,3-a]pyridine-6-carboxamide]
ENL YEATS
  IC50: 183 ± 25 nM
ENL YEATS domain [2]
  Kd: 645 nM
NLuc-ENL YEATS
  IC50: 2.02 µM
[3]
  chromatographic logD: 0.08
[4]
  degradation after 2 h incubation in human plasma: approximately 15%
[4]; 5 μM, mean ± SD, n = 3
  Plasma % of parent compound remaining (after 2h incubation): 83.10 ± 3.49%
[5]; human, human liver microsomes, pH 7.4, HLM 0.5 mg/mL, NADPH 1 mM, mean ± SD, n = 3, read-out: Liver Microsome CLint, pred
  CLint scaled at 1 h: 4.76 mL/min/kg
[5]; human, human liver microsomes, pH 7.4, HLM 0.5 mg/mL, NADPH 1 mM, mean ± SD, n = 3, read-out: Liver Microsome t1/2
  half-life at 1 h: 6.15 ± 0.582 h
[5]; in the presence of NADPH, 60 min
  parent compound remaining after 60 min incubation in HLM: over 90%
[6]
  IC50 at 8 days: < 4 µM
MOLM-13 cells
  IC50: 3.61 ± 0.49 µM
[7]
  IC50 at 8 days: < 4 µM
MV4-11 cells
  IC50: 3.28 ± 0.65 µM
[8]
  IC50 at 8 days: > 64 µM
[9]
  IC50 at 72 h: > 64 µM

## O=C(CCC1=[N+]2C(=Cc3ccc(-c4ccc[nH]4)n3[B-]2(F)F)C=C1)NCCCC(=O)Nc1cccc(-c2cn3cc(C(=O)NC4CCC4)ccc3n2)c1 [Tracer 2, N-Cyclobutyl-2-(3-(4-(3-(5,5-difluoro-7-(1H-pyrrol-2-yl)-5H-4l4,5l4-dipyrrolo[1,2-c:2′,1′-f][1,3,2]diazaborinin-3yl)propanamido)butanamido)phenyl)imidazo[1,2-a]pyridine-6-carboxamide]
[1]; nonspecific signal removed with 80 μM unlabeled compound 20
  EC50: 1.46 µM

## H3K27cr peptide: commonly used biotinylated H3K27cr peptide for the AlphaScreen assay
ENL YEATS domain [10]
  Kd: 34 µM
